Some test systems named below: CAKI-1; HCT-116; U-251; HCT-15; COLO 205; NCI/ADR-RES; MDA-MB-435; 786-0; A498; SN12C; OVCAR-8; IGROV-1; UO-31; Malme-3M; HOP-62; SF-268; OVCAR-5; OVCAR-3; CCRF-CEM; EKVX.
Assay in all cases: NCI anticancer screen, dose series, 48 h

Molecules are shown by their SMILES.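 Grown in 96-well plates, cells were treated for 48 hours with each compound at five concentrations. Insufficient inhibition: endpoint recorded as highest concentration tested. The concentration for 50% growth inhibition is given as GI50.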 Calls of active or inactive are those of the source. Cut-off read from the data, not from the text of the source: active = GI50 up to about 1.1 µM and inactive = higher.

This note sets out measurements from ChEMBL document CHEMBL1201862, “PubChem BioAssay data set” (2004).

With `COC(OC)C1OC(CO)C(n2cc(C)c(=O)[nH]c2=O)C1O` (stereo not given), the GI50 with CAKI-1 was > 100 µM (inactive); in the experiment on HCT-116, > 100 µM (inactive); in the experiment on U-251, > 100 µM (inactive); in the experiment on HCT-15, above 100 µM; in the experiment on COLO 205, > 100 µM (inactive); in the experiment with NCI/ADR-RES, > 100 µM (inactive). The GI50 in the experiment on MDA-MB-435, with 786-0, in the experiment with A498, with SN12C, in the experiment on OVCAR-8 and with IGROV-1 was > 100 µM (inactive) each time. In addition, the GI50 in the experiment on UO-31, with Malme-3M, with HOP-62, with SF-268, in the experiment with OVCAR-5 and with OVCAR-3 was > 100 µM (inactive) throughout. The GI50 in the experiment on CCRF-CEM and with EKVX was > 100 µM (inactive) each time.
In the case of `CC(NC(=O)C(N)Cc1ccc(O)cn1)C(=O)O` (stereo not given), the GI50 with CAKI-1 was > 100 µM (inactive); with HCT-116, > 100 µM (inactive); in the experiment on U-251, > 100 µM (inactive); in the experiment with HCT-15, above 100 µM; in the experiment with COLO 205 it was > 100 µM (inactive); with NCI/ADR-RES it was > 100 µM (inactive). The GI50 in the experiment on MDA-MB-435, in the experiment on 786-0, in the experiment with A498, with SN12C, in the experiment on OVCAR-8 and in the experiment with IGROV-1 was > 100 µM (inactive) in each case. Moreover, the GI50 in the experiment on UO-31, with Malme-3M, in the experiment on HOP-62, in the experiment with SF-268, with OVCAR-5 and in the experiment on OVCAR-3 was > 100 µM (inactive) throughout. In addition, the GI50 in the experiment on CCRF-CEM and with EKVX was > 100 µM (inactive) each time.
On to `O=C1Nc2ccc(S(=O)(=O)O)cc2/C1=C1/Nc2ccc(Br)cc2C1=O`, for which the GI50 with CAKI-1 is > 100 µM (inactive); in the experiment on HCT-116 it was > 100 µM (inactive); with U-251 it was > 100 µM (inactive); with HCT-15 it was above 100 µM; with COLO 205, > 100 µM (inactive); in the experiment on NCI/ADR-RES, > 100 µM (inactive). The GI50 with MDA-MB-435 is > 100 µM (inactive); in the experiment on 786-0 it was > 100 µM (inactive); with A498 it was > 100 µM (inactive); in the experiment on SN12C, > 100 µM (inactive); with OVCAR-8, > 100 µM (inactive); in the experiment with IGROV-1, 19.1 µM (inactive). The GI50 in the experiment with UO-31, in the experiment with Malme-3M, in the experiment on HOP-62, in the experiment with SF-268, with OVCAR-5 and in the experiment on OVCAR-3 was > 100 µM (inactive) in each case. The GI50 in the experiment on CCRF-CEM and in the experiment with EKVX was > 100 µM (inactive) each time.
As to `COC(=O)[C@H](Cc1ccccc1)NC(=O)c1ccc(CNC(=O)/C=C/c2cccc(Oc3ccccc3)c2)cc1`, the GI50 was 16.5 µM (inactive) in the experiment with CAKI-1; 37 µM (inactive) with HCT-116; 18.3 µM (inactive) in the experiment with U-251; 6.24 µM in the experiment with HCT-15; 21.3 µM (inactive) in the experiment with COLO 205; 31.3 µM (inactive) with NCI/ADR-RES. Besides, the GI50 with MDA-MB-435 is 5.35 µM (inactive); in the experiment on 786-0, 17.3 µM (inactive); in the experiment with A498 it was 23.1 µM (inactive); in the experiment with SN12C, 26.1 µM (inactive); with OVCAR-8 it was 36.4 µM (inactive); with IGROV-1 it was 7.31 µM (inactive). The GI50 in the experiment on UO-31 is 26.7 µM (inactive); in the experiment on Malme-3M, 15.1 µM (inactive); with HOP-62, 77.3 µM (inactive); with SF-268, 14.6 µM (inactive); with OVCAR-5 it was > 100 µM (inactive); with OVCAR-3, 11.8 µM (inactive). Further, the GI50 is 11 µM (inactive) with CCRF-CEM and 30.8 µM (inactive) in the experiment with EKVX.
Consider `COCn1c(=O)n(C)c(=O)c2c1nc1c(c(=O)n(C)c(=O)n1COC)[n+]2[O-]`, for which the GI50 in the experiment on CAKI-1 was 20.3 µM (inactive); in the experiment on HCT-116 it was 10.6 µM (inactive); in the experiment with U-251, 5.85 µM (inactive); with HCT-15 it was 4.22 µM; with COLO 205, 12.5 µM (inactive); with NCI/ADR-RES, 59 µM (inactive). In addition, the GI50 in the experiment on MDA-MB-435 was 5.75 µM (inactive); with 786-0, 18.4 µM (inactive); with A498, 31.2 µM (inactive); in the experiment with SN12C, 7.08 µM (inactive); in the experiment on OVCAR-8, 5.7 µM (inactive); in the experiment with IGROV-1, 7.36 µM (inactive). In addition, the GI50 with UO-31 was 24.9 µM (inactive); in the experiment with Malme-3M, 5.47 µM (inactive); in the experiment with HOP-62, 9.23 µM (inactive); in the experiment with SF-268, 6.65 µM (inactive); in the experiment with OVCAR-5 it was 25.1 µM (inactive); in the experiment on OVCAR-3, 10.6 µM (inactive). In addition, the GI50 was 5.37 µM (inactive) in the experiment with CCRF-CEM and 7.85 µM (inactive) with EKVX.
Consider `COC(=O)CCCc1c(-c2[nH]c3ccccc3c2CCCC(=O)OC)[nH]c2ccccc12`, for which the GI50 was > 100 µM (inactive) with CAKI-1; > 100 µM (inactive) with HCT-116; > 100 µM (inactive) with U-251; above 100 µM in the experiment with HCT-15; > 100 µM (inactive) in the experiment on COLO 205; > 100 µM (inactive) in the experiment on NCI/ADR-RES. The GI50 in the experiment with MDA-MB-435, in the experiment on 786-0, in the experiment on A498, with SN12C, in the experiment on OVCAR-8 and with IGROV-1 was > 100 µM (inactive) each time. Besides, the GI50 in the experiment on UO-31 is > 100 µM (inactive); in the experiment on Malme-3M it was 39.3 µM (inactive); with HOP-62, > 100 µM (inactive); in the experiment on SF-268 it was > 100 µM (inactive); in the experiment on OVCAR-5 it was > 100 µM (inactive); in the experiment on OVCAR-3, > 100 µM (inactive). The GI50 with CCRF-CEM and in the experiment with EKVX was > 100 µM (inactive) each time.
`O=C(NNCC(F)(F)F)c1ccncc1`: the GI50 with CAKI-1 is > 100 µM (inactive); with HCT-116, > 100 µM (inactive); with U-251 it was > 100 µM (inactive); with HCT-15, above 100 µM; in the experiment with COLO 205, > 100 µM (inactive); in the experiment with NCI/ADR-RES it was > 100 µM (inactive). Further, the GI50 in the experiment with MDA-MB-435, in the experiment on 786-0, in the experiment with A498, in the experiment with SN12C, in the experiment on OVCAR-8 and in the experiment with IGROV-1 was > 100 µM (inactive) throughout. Besides, the GI50 with UO-31, in the experiment on Malme-3M, in the experiment with HOP-62, with SF-268, in the experiment with OVCAR-5 and in the experiment with OVCAR-3 was > 100 µM (inactive) each time. The GI50 in the experiment with CCRF-CEM and in the experiment with EKVX was > 100 µM (inactive) in each case.
